Experimental findings from PMC7827406, “Structure–Activity Relationship (SAR) Study of Spautin-1 to Entail the Discovery of Novel NEK4 Inhibitors” (International Journal of Molecular Sciences, 2021) are described below.

Where two headings read alike, the source gives them in different places.

Common to all, as to assay: biochemical
What all share (set-up): Eurofins KinaseProfiler full panel at Km ATP, residual kinase activity (%) relative to DMSO

One experiment deals with T1, Haspin(h) (Homo sapiens, UniProt Q8TF76).
T1 sequence (Q8TF76 1-798): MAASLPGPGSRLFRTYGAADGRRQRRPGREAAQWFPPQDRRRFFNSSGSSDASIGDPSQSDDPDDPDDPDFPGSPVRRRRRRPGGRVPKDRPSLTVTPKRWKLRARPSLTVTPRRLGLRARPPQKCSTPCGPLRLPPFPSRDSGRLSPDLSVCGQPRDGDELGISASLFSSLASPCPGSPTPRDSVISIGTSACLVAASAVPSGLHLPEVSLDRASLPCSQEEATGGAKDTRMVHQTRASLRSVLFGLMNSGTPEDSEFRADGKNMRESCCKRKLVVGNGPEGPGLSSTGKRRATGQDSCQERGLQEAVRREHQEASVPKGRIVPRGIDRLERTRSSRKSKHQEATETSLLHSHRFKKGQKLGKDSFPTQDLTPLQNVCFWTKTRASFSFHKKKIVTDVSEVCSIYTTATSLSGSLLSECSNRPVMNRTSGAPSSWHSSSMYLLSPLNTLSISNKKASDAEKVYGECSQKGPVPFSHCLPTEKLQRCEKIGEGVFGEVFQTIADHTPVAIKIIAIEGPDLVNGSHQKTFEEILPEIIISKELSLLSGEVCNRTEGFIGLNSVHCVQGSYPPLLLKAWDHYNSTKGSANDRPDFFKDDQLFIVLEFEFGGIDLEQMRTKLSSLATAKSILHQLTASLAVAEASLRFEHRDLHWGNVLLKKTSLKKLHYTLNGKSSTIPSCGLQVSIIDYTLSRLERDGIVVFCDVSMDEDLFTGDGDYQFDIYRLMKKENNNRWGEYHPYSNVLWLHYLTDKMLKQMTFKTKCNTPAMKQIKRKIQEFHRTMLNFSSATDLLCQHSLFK
The method in brief:
(§1)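 Radiometric kinase activity assays were run with ATP at Km and compounds at 10 µM, and remaining activity (%) was reported. A separate competitive binding screen measured DNA-tagged kinase displaced from immobilized active-site ligands by qPCR, giving percent kinase still bound at 10 µM compound in DMSO.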

Another experiment addresses FGFR2(h) (Homo sapiens, UniProt P21802). A digest of the protocol:
as §1

In the next experiment the target is T2, Src(1-530)(h) (Homo sapiens, UniProt P12931).
T2 construct: residues 1-530
A digest of the protocol: as §1

A further experiment deals with T3, PKBγ(h) (Homo sapiens, UniProt Q9Y243).
T3 construct: gene AKT3
The method in brief: as §1

The next experiment deals with T4, ULK3(h) (Homo sapiens, UniProt Q6PHR2).
T4 sequence (Q6PHR2 1-472): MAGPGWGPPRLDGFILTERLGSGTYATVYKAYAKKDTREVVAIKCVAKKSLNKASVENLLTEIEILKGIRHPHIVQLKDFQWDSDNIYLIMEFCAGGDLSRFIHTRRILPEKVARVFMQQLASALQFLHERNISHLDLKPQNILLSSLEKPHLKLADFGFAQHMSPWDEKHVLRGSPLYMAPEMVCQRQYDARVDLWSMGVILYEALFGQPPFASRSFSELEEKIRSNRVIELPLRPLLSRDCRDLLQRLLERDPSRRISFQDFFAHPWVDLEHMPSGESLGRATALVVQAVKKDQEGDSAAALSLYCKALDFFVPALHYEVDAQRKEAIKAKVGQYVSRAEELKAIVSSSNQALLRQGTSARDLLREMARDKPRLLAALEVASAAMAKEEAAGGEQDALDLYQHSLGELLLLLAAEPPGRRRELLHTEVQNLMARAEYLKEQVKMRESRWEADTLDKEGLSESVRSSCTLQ
The method in brief:
as §1

For the next experiment, the target named is T5, PKA(h) (Homo sapiens, UniProt P17612).
T5 construct: gene PRKACA
The method in brief:
as §1

A further experiment deals with T6, PhKγ1(h) (Homo sapiens, UniProt Q16816).
T6 construct: gene PHKG1
The method in brief:
as §1

Another experiment has as its target T7, Rsk3(h) (Homo sapiens, UniProt Q15349).
T7 construct: gene RPS6KA2
The method in brief:
as §1

The target of the next experiment is DDR1(h) (Homo sapiens, UniProt Q08345). The method in brief: as §1
A further experiment deals with T8, ACK1(h) (Homo sapiens, UniProt Q07912).
T8 construct: gene TNK2
The method in brief:
as §1

The target in a further experiment is T9, Arg(h) (Homo sapiens, UniProt P42684).
T9 construct: gene ABL2
A digest of the protocol: as §1

For a further experiment, the target named is TLK2(h) (Homo sapiens, UniProt Q86UE8). A digest of the protocol:
as §1

Setting [1] is: read-out: Residual activity (%) Spautin-1 5aa.
Where [2] appears, read: read-out: Residual activity (%) 5as.
Where [3] appears, read: read-out: Residual activity (%) 5at.
Where [4] appears, read: read-out: Residual activity (%) 5ay.

Chain of FGFR2(h) (P21802 whole entry): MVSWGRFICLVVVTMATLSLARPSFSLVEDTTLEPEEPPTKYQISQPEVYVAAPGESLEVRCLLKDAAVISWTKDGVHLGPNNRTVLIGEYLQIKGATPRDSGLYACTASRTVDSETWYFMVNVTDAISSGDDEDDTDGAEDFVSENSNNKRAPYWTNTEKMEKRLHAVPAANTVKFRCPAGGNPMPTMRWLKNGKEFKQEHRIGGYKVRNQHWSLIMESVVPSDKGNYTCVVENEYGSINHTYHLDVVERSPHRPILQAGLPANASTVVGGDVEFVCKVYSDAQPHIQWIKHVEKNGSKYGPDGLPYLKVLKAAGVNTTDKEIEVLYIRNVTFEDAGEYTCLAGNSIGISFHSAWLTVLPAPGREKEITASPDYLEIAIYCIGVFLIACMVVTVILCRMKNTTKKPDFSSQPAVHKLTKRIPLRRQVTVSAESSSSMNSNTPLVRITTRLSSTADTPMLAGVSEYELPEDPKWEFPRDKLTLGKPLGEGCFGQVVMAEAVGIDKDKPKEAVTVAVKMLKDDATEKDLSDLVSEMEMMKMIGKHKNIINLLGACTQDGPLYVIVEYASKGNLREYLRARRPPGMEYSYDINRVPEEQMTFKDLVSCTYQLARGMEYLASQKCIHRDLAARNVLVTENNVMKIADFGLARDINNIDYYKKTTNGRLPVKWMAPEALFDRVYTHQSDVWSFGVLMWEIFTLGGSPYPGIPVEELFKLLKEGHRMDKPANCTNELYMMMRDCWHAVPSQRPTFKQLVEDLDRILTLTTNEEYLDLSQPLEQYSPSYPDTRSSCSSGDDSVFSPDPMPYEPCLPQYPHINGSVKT
Chain of TLK2(h) (Q86UE8 whole entry): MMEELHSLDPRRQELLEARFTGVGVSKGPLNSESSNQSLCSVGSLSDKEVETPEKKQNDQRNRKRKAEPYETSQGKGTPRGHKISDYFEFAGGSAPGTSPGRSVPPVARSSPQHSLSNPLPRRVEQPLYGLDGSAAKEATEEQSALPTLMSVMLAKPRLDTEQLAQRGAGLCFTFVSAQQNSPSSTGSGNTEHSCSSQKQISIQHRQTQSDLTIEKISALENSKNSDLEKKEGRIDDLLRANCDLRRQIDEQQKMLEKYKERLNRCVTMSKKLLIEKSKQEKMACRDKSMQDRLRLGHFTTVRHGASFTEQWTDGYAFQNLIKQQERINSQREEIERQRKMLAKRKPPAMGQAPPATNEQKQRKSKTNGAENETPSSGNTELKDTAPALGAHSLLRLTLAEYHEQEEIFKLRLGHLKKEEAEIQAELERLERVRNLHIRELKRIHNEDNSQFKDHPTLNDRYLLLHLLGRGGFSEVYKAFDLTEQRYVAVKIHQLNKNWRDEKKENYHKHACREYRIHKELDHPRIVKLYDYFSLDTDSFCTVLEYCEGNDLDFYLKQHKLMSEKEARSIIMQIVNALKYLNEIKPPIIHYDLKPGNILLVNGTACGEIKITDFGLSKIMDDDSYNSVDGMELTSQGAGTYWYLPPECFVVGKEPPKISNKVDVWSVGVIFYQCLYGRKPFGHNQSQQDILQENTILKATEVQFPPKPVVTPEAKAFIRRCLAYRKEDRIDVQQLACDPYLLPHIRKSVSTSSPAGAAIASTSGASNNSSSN
T9 sequence (P42684 whole entry): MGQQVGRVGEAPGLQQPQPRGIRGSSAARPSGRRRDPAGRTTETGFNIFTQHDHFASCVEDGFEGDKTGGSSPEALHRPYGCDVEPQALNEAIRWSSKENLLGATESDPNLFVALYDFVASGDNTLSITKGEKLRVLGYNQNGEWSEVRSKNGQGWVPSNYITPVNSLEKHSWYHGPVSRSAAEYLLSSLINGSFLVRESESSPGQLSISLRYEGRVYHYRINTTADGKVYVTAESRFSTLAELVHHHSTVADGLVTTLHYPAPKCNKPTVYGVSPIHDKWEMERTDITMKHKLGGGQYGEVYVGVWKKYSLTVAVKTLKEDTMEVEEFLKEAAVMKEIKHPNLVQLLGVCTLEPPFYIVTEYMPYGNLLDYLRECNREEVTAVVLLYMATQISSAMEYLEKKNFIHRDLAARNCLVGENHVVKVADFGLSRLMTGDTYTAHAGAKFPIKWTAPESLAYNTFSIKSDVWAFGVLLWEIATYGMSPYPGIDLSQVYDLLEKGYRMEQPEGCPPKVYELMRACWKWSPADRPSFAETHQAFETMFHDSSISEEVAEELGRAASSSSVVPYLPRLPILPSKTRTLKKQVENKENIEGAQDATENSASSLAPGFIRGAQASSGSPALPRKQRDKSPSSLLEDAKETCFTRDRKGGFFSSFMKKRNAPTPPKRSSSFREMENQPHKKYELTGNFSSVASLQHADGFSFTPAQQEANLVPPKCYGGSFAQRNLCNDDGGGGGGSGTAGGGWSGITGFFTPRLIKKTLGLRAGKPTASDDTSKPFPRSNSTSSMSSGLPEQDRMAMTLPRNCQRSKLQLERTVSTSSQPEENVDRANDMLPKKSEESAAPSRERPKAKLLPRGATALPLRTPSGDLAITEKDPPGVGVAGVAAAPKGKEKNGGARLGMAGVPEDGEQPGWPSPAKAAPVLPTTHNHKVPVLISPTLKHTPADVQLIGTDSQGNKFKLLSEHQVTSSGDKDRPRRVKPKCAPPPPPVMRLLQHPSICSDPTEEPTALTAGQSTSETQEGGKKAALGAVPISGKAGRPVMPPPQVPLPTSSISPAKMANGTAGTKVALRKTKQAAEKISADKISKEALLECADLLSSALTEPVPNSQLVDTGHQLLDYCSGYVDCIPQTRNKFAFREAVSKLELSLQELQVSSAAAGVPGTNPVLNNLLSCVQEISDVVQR
T2 sequence (P12931 whole entry, the tested form may be a part): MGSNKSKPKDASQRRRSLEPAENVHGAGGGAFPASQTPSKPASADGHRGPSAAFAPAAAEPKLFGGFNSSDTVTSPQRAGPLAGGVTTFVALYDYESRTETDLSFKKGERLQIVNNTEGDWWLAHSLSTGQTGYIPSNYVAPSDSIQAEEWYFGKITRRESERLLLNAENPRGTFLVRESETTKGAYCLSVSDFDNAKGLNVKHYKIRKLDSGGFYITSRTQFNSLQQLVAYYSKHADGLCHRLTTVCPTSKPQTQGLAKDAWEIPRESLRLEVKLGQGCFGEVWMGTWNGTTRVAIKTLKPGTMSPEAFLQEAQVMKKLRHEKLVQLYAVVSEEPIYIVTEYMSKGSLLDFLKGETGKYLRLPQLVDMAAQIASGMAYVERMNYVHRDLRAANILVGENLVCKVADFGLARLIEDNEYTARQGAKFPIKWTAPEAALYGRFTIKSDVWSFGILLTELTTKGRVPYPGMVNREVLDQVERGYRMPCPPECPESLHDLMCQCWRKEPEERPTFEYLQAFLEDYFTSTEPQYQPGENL
T8 sequence (Q07912 whole entry): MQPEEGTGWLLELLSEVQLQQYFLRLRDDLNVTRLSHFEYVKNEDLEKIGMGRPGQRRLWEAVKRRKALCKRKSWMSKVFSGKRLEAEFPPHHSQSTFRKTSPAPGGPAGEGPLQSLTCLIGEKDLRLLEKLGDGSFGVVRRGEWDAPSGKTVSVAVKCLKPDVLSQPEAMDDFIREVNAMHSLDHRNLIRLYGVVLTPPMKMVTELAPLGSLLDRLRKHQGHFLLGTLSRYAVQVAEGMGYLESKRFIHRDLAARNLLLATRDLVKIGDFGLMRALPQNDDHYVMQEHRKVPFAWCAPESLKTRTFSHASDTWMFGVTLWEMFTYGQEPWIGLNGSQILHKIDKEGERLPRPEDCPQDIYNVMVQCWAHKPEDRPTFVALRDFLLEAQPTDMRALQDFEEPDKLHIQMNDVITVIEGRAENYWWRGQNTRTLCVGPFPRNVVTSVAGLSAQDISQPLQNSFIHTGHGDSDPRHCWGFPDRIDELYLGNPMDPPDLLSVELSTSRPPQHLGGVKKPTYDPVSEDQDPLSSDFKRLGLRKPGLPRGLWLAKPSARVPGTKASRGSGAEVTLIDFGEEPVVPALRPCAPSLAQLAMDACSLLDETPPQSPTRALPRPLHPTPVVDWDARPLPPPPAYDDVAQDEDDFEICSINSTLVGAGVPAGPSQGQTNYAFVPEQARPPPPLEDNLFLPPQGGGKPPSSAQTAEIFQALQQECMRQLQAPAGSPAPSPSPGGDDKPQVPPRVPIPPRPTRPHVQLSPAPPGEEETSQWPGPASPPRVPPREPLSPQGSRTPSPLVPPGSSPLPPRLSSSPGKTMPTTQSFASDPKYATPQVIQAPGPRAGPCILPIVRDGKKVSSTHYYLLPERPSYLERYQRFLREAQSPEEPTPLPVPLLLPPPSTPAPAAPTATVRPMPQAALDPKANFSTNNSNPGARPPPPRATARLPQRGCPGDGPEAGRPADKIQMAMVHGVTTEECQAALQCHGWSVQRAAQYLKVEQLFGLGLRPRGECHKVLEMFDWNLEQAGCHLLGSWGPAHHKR
T7 sequence (Q15349 whole entry): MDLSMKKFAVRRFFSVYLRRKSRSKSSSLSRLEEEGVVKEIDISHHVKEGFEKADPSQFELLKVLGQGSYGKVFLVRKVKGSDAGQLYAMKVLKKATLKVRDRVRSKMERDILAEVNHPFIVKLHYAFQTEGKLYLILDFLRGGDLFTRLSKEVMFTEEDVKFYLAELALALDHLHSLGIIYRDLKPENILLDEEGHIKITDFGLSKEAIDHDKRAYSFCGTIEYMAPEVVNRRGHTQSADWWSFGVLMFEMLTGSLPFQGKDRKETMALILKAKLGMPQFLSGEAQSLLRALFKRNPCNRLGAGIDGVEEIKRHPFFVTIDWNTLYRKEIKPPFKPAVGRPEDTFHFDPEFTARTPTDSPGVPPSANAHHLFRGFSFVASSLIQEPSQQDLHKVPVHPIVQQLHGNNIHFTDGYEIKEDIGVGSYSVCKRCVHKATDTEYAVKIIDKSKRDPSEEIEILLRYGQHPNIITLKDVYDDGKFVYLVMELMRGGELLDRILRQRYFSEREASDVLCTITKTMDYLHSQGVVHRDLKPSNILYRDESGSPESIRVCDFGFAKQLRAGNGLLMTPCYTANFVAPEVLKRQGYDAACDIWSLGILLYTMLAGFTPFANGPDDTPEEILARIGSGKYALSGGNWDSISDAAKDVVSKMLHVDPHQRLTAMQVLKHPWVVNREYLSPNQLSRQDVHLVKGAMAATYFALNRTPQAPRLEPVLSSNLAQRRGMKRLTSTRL

As for `Fc1ccc(CNc2ncnc3ccc(F)cc23)cc1` [5aa, 6-Fluoro-N-(4-fluorobenzyl)-4-Quinazolinamine], the remaining activity at 10 µM at Haspin(h) (setting [1]) was determined as 71%; at FGFR2(h) (setting [1]), 91%; at Src(1-530)(h) (setting [1]) it was 107%; at PKBγ(h) (setting [1]), 101%; on ULK3(h) (setting [1]), 96%; on PKA(h) (setting [1]) it was 103%. The remaining activity at 10 µM on PhKγ1(h) (setting [1]) is 102%; at Rsk3(h) (setting [1]) it was 126%; at DDR1(h) (setting [1]) it was 65%; on ACK1(h) (setting [1]), 85%; on Arg(h) (setting [1]) it was 79%; on TLK2(h) (setting [1]) it was 99%.

Regarding `Fc1ccc(CCNc2ncnc3ccc(F)cc23)cc1` [5as, 6-Fluoro-N-[2-(4-Fluorophenyl)Ethyl]-4-Quinazolinamine], the remaining activity at 10 µM at Haspin(h) (setting [2]) was determined as 72%; on FGFR2(h) (setting [2]), 99%; on Src(1-530)(h) (setting [2]), 101%; at PKBγ(h) (setting [2]) it was 102%; at ULK3(h) (setting [2]), 92%; at PKA(h) (setting [2]) it was 101%. For the same compound, the remaining activity at 10 µM was determined as 120% on PhKγ1(h) (setting [2]); 108% on Rsk3(h) (setting [2]); 29% on DDR1(h) (setting [2]); 84% on ACK1(h) (setting [2]); 82% at Arg(h) (setting [2]); 98% at TLK2(h) (setting [2]).

Consider `Fc1ccc2ncnc(NCCc3ccc(Cl)cc3)c2c1` [5at, N-[2-(4-Chlorophenyl)Ethyl]-6-Fluoro-4-Quinazolinamine], for which the remaining activity at 10 µM at Haspin(h) (setting [3]) worked out at 78%; on FGFR2(h) (setting [3]), 84%; at Src(1-530)(h) (setting [3]), 81%; on PKBγ(h) (setting [3]) it was 105%; on ULK3(h) (setting [3]), 93%; at PKA(h) (setting [3]), 106%. Moreover, the remaining activity at 10 µM on PhKγ1(h) (setting [3]) was 141%; at Rsk3(h) (setting [3]), 111%; on DDR1(h) (setting [3]), 39%; on ACK1(h) (setting [3]), 71%; at Arg(h) (setting [3]), 81%; at TLK2(h) (setting [3]), 103%.

`COc1ccc2ncnc(Nc3cccc(F)c3)c2c1` [5ay, N-(3-Fluorophenyl)-6-Methoxy-4-Quinazolinamine]: the remaining activity at 10 µM turned out to be 36% on Haspin(h) (setting [4]); 96% at FGFR2(h) (setting [4]); 90% at Src(1-530)(h) (setting [4]); 89% on PKBγ(h) (setting [4]); 90% at ULK3(h) (setting [4]); 97% on PKA(h) (setting [4]). The remaining activity at 10 µM on PhKγ1(h) (setting [4]) worked out at 121%; at Rsk3(h) (setting [4]), 87%; on DDR1(h) (setting [4]), 7%; at ACK1(h) (setting [4]) it was 56%; at Arg(h) (setting [4]) it was 73%; at TLK2(h) (setting [4]), 97%.
